In patent US20070072209A1, “Methods of treatment and diagnosis of Kaposi's sarcoma (KS) and KS related diseases” (priority 2005, published 2007):

Experiments:
Type in all cases: cell-based, human
[1] = tested on: Neuritin mRNA; experiment: qPCR of target mRNA after siRNA transfection: Neuritin; details: relative to controls; RNA harvested day 3 post-transfection
Description: (§1) Quantitative PCR. Real-time PCR was performed on an ABI 7700 sequence detection system (Applied Biosystems). To normalize gene expression between mock and infected samples, 18S RNA, beta-Actin and GAPDH were assessed. […] Total RNA was treated with Dnase I (Dnase Free:Ambion) before synthesis of cDNA by random hexamers and Superscript II (Invitrogen). […] Relative expression values between mock and infected samples were calculated by the comparative CT Method as previously described (Moses et al, 2002). […]
(§2) siRNA treatment and Focus Inhibition Assay. siRNA oligonucleotides were designed using the oligoengine design tool (Oligoengine, Seattle, Wash.). […] Cells were monitored for up to 14 days for evidence of foci-formation, as described for the PMO-AS assays. […]
Specifically, FIGS. 6A-D show, according to particular aspects of the present invention, small interfering RNA (siRNA) inhibition of RDC1, Neuritin, INSR and IGFBP2. […] Cells were treated with siRNA and monitored for up to 14 days. To calculate mRNA degradation, mRNA was isolated and qPCR was performed. mRNA levels were calculated relative to a FITC-tagged control siRNA (100%). […]

[2] = tested on: KSHV-infected DMVEC; experiment: siRNA treatment and focus inhibition assay; details: observed up to 14 days post-transfection
Description: siRNA treatment and Focus Inhibition Assay. siRNA oligonucleotides were designed using the oligoengine design tool (Oligoengine, Seattle, Wash.). RNA olionucleotides were purchased from Oligoengine or Dharmacon Inc. (Lafayette, Colo.). […] The twenty-one nucleotide RNA oligos were resuspended according to manufacturer's instructions to obtain either 20 microM or 50 microM solutions and delivered to DMVEC by transfection. For transfection, cells were seeded into 35 mm plates for overnight incubation, and transfections were performed at approximately 80% confluence according to published methods. Briefly, from a 20 microM siRNA stock solution, 12 microL of siRNA was added (240 pmol) to 200 microL OPTI-MEM medium (Gibco). After a 10 minute incubation, 12 microL Oligofectamine (Invitrogen) diluted in 48 microL OPTI-MEM was mixed with the diluted siRNA and incubated for an addition 20 minutes. The complex was added dropwise to a […] containing 1 ml of complete endothelial growth medium. Cells were monitored for up to 14 days for evidence of foci-formation, as described for the PMO-AS assays. Control Cy3-Luciferase GL2 Duplex siRNA (Dharmacon) was used to monitor transient tranfection and the duration of siRNA expression in endothelial cells. Cy3 siRNA was visible for over 3 weeks post-transfection. […]

[3] = tested on: RDC1 mRNA; experiment: qPCR of target mRNA after siRNA transfection: RDC1; details: relative to FITC-tagged control siRNA or transfection reagent alone; KSHV-DMVEC
Description: as §1, §2
Specifically, FIGS. 6A-D show, according to particular aspects of the present invention, small interfering RNA (siRNA) inhibition of RDC1, Neuritin, INSR and IGFBP2. […] Cells were treated with siRNA and monitored for up to 14 days. To calculate mRNA degradation, mRNA was isolated and qPCR was performed. mRNA levels were calculated relative to a FITC-tagged control siRNA (100%).

Substance	reduction in Neuritin mRNA levels [1]	KSHV-induced focus formation / contact inhibition after siRNA [2]	reduction of RDC1 mRNA [3]
Neuritin siRNA: Neuritin siRNA, AAAGATATCTGATTAATTCCA (SEQ ID NO:42) (guide AAAGATATCTGATTAATTCCA; listed as DNA, chemistry not given here)	63%	maintained contact-inhibited growth	–
RDC1 siRNA #1: RDC1 siRNA giving the larger mRNA decrease; presumably RDC1-234, AACATGCCCAACAAAAGCGTC (guide AACATGCCCAACAAAAGCGTC; listed as DNA, chemistry not given here)	–	more stringent maintenance of contact inhibition	56%
